Reference: ChEMBL document CHEMBL5365457, “Selective HDAC3 Inhibitors with Potent In Vivo Antitumor Efficacy against Triple-Negative Breast Cancer” (J Med Chem, 2023)

Columns and labels:
[1] = biological target: T1, Histone deacetylase 8 (Homo sapiens, UniProt Q9BY41); assay: Inhibition of HDAC8 (unknown origin)
T1 sequence (Q9BY41 whole entry): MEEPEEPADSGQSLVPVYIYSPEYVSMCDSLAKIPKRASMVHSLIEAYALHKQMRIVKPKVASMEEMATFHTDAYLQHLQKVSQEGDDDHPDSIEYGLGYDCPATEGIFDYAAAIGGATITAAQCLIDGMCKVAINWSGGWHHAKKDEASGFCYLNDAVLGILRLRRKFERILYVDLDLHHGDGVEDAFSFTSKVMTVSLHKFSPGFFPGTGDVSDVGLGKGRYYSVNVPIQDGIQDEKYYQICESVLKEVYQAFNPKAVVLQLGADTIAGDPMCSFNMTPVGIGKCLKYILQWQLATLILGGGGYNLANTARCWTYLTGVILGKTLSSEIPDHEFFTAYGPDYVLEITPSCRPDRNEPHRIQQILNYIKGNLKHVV

[2] = biological target: T2, Protein deacetylase HDAC6 (Homo sapiens, UniProt Q9UBN7); assay: Inhibition of HDAC6 (unknown origin)
T2 sequence (Q9UBN7 whole entry): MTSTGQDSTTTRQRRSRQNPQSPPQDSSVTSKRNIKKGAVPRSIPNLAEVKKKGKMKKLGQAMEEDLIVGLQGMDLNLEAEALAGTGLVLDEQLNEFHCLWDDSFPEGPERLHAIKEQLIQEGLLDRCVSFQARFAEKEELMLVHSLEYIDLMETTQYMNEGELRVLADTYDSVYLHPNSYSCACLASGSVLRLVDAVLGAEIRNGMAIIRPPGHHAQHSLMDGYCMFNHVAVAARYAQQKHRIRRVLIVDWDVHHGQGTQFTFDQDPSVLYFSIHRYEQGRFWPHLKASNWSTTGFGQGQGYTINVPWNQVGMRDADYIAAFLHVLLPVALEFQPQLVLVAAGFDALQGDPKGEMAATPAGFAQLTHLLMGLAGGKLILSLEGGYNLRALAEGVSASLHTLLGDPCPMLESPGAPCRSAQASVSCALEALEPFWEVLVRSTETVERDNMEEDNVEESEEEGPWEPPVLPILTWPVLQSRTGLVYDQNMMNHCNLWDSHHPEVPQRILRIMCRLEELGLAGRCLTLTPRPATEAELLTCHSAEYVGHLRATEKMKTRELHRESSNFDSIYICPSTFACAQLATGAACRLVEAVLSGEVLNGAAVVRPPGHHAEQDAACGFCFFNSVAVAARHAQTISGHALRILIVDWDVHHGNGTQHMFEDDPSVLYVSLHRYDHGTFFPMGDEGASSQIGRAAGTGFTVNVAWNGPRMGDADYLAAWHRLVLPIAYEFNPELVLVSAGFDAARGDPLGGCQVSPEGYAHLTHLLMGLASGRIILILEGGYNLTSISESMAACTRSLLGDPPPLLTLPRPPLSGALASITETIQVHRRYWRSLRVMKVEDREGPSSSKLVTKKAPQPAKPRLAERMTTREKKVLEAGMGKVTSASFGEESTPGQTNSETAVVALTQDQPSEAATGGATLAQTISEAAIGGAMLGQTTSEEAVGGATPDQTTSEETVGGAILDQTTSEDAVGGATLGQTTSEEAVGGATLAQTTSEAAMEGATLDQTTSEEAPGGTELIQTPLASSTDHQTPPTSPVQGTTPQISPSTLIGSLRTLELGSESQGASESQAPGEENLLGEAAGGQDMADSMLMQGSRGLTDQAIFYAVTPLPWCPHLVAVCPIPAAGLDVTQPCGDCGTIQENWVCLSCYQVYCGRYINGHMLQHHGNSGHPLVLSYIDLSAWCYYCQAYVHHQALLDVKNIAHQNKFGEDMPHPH

[3] = biological target: Histone deacetylase 3 (Homo sapiens, UniProt O15379); assay: Inhibition of human recombinant HDAC3 at 1 uM measured after 30 mins by fluorescence based microplate assay relative to control
Sequence of Histone deacetylase 3 (O15379 whole entry): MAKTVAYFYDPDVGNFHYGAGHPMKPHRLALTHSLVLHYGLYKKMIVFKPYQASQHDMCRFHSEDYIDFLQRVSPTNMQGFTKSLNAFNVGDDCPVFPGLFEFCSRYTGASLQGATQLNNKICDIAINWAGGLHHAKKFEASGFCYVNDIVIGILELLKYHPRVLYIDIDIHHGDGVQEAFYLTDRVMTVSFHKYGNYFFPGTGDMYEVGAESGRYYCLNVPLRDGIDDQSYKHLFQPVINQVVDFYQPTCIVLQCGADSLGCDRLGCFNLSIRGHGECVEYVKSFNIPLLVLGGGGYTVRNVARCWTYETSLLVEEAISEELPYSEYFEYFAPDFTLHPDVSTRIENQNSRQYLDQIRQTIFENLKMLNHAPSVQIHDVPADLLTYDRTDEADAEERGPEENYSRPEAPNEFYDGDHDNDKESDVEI

[4] = test system: MCF7; assay: Cytotoxicity against human MCF7 cells assessed as inhibition of cell growth incubated for 72 hrs by MTT assay; format: functional, cell-based; details: MCF7, 72 h
[5] = test system: 4T1; assay: Cytotoxicity against mouse 4T1 cells assessed as inhibition of cell growth incubated for 72 hrs by MTT assay; format: functional, cell-based; details: 4T1, 72 h
[6] = test system: MDA-MB-231; assay: Cytotoxicity against human MDA-MB-231 cells assessed as inhibition of cell growth incubated for 72 hrs by MTT assay; format: functional, cell-based; details: MDA-MB-231, 72 h
[7] = test system: MDA-MB-453; assay: Cytotoxicity against human MDA-MB-453 cells assessed as inhibition of cell growth incubated for 72 hrs by MTT assay; format: functional, cell-based; details: MDA-MB-453, 72 h
[8] = Cytotoxicity against human MCF-10A cells assessed as inhibition of cell growth incubated for 72 hrs by MTT assay; format: toxicity, cell-based
[9] = Cytotoxicity against human HEK293 cells assessed as inhibition of cell growth incubated for 72 hrs by MTT assay; format: toxicity, cell-based
[10] = Cytotoxicity against human HCEC cells assessed as inhibition of cell growth incubated for 72 hrs by MTT assay; format: toxicity, cell-based; details: human, HCEC cells
[11] = Selectivity ratio of IC50 for cytotoxicity against human MCF-10A cells assessed as inhibition of cell growth to IC50 for cytotoxicity against human MCF7 cells assessed as inhibition of cell growth; format: toxicity, cell-based; details: MCF-10A cells versus MCF7 cells, read-out: Ratio IC50
[12] = Selectivity ratio of IC50 for cytotoxicity against human MCF-10A cells assessed as inhibition of cell growth to IC50 for cytotoxicity against […] cells assessed as inhibition of cell growth; format: toxicity, cell-based; details: MCF-10A cells versus 4T1 cells, read-out: Ratio IC50
[13] = Selectivity ratio of IC50 for cytotoxicity against human MCF-10A cells assessed as inhibition of cell growth to IC50 for cytotoxicity against human MDA-MB-231 cells assessed as inhibition of cell growth; format: toxicity, cell-based; details: MCF-10A cells versus MDA-MB-231 cells, read-out: Ratio IC50
[14] = Selectivity ratio of IC50 for cytotoxicity against human MCF-10A cells assessed as inhibition of cell growth to IC50 for cytotoxicity against human MDA-MB-453 cells assessed as inhibition of cell growth; format: toxicity, cell-based; details: MCF-10A cells versus MDA-MB-453 cells, read-out: Ratio IC50
[15] = Selectivity ratio of IC50 for cytotoxicity against human HEK293 cells assessed as inhibition of cell growth to IC50 for cytotoxicity against human MCF7 cells assessed as inhibition of cell growth; format: toxicity, cell-based; details: HEK293 cells versus MCF7 cells, read-out: Ratio IC50
[16] = Selectivity ratio of IC50 for cytotoxicity against human HEK293 cells assessed as inhibition of cell growth to IC50 for cytotoxicity against mouse 4T1 cells assessed as inhibition of cell growth; format: toxicity, cell-based; details: HEK293 cells versus 4T1 cells, read-out: Ratio IC50
[17] = Selectivity ratio of IC50 for cytotoxicity against human HEK293 cells assessed as inhibition of cell growth to IC50 for cytotoxicity against human MDA-MB-231 cells assessed as inhibition of cell growth; format: toxicity, cell-based; details: HEK293 cells versus MDA-MB-231 cells, read-out: Ratio IC50
[18] = Selectivity ratio of IC50 for cytotoxicity against human HEK293 cells assessed as inhibition of cell growth to IC50 for cytotoxicity against human MDA-MB-453 cells assessed as inhibition of cell growth; format: toxicity, cell-based; details: HEK293 cells versus MDA-MB-453 cells, read-out: Ratio IC50
[19] = Selectivity ratio of IC50 for cytotoxicity against human HCEC cells assessed as inhibition of cell growth to IC50 for cytotoxicity against human MCF7 cells assessed as inhibition of cell growth; format: toxicity, cell-based; details: HCEC cells versus MCF7 cells, read-out: Ratio IC50
[20] = Selectivity ratio of IC50 for cytotoxicity against human HCEC cells assessed as inhibition of cell growth to IC50 for cytotoxicity against mouse 4T1 cells assessed as inhibition of cell growth; format: toxicity, cell-based; details: HCEC cells versus 4T1 cells, read-out: Ratio IC50
[21] = Selectivity ratio of IC50 for cytotoxicity against human HCEC cells assessed as inhibition of cell growth to IC50 for cytotoxicity against human MDA-MB-231 cells assessed as inhibition of cell growth; format: toxicity, cell-based; details: HCEC cells versus MDA-MB-231 cells, read-out: Ratio IC50
[22] = Selectivity ratio of IC50 for cytotoxicity against human HCEC cells assessed as inhibition of cell growth to IC50 for cytotoxicity against human MDA-MB-453 cells assessed as inhibition of cell growth; format: toxicity, cell-based; details: HCEC cells versus MDA-MB-453 cells, read-out: Ratio IC50
[23] = biological target: Histone deacetylase 2 (Homo sapiens, UniProt Q92769); assay: Inhibition of human recombinant HDAC2 at 1 uM incubated for 30 mins by fluorescence based microplate assay relative to control
Sequence of Histone deacetylase 2 (Q92769 whole entry): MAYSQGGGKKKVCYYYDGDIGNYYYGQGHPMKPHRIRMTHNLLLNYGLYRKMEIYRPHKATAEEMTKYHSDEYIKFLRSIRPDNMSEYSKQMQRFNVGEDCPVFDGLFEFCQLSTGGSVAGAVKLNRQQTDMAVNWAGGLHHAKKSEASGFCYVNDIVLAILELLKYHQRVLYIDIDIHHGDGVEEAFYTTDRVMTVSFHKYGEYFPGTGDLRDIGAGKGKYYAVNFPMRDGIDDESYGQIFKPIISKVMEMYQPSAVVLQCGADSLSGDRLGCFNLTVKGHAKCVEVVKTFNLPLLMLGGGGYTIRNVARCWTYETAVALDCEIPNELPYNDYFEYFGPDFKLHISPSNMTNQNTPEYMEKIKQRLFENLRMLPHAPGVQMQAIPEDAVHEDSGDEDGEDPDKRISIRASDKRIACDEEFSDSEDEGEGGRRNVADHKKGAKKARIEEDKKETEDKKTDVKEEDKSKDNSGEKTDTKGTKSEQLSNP

[24] = biological target: Histone deacetylase 1 (Homo sapiens, UniProt Q13547); assay: Inhibition of full length N-terminal human recombinant HDAC1 at 1 uM incubated for 30 mins by fluorescence based microplate assay relative to control
Sequence of Histone deacetylase 1 (Q13547 whole entry): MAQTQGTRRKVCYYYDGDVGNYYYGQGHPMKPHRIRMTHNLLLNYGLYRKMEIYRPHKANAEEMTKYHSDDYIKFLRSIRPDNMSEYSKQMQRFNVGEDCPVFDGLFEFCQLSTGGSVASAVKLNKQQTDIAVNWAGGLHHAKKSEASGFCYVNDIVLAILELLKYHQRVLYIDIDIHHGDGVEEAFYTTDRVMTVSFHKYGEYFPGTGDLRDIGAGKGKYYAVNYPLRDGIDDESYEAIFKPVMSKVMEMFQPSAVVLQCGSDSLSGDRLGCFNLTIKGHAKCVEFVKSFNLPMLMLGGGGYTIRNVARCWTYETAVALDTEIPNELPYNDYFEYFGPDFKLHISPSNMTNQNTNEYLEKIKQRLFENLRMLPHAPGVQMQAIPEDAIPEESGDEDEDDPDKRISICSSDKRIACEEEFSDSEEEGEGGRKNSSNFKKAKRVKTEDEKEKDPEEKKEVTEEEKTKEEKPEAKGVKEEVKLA

[25] = biological target: T1, Histone deacetylase 8; assay: Inhibition of human recombinant HDAC8 incubated for 10 mins by fluorescence based microplate analysis
[26] = biological target: T2, Protein deacetylase HDAC6; assay: Inhibition of human recombinant HDAC6 incubated for 15 mins by fluorescence based microplate analysis

Row | SMILES | inhibition [3] [%] | IC50 [4] [µM] | IC50 [5] [µM] | IC50 [6] [µM] | IC50 [7] [µM] | IC50 at 72 h [8] [µM] | IC50 at 72 h [9] [µM] | IC50 at 72 h [10] [µM] | selectivity ratio [11] | selectivity ratio [12] | selectivity ratio [13] | selectivity ratio [14] | selectivity ratio [15] | selectivity ratio [16] | selectivity ratio [17] | selectivity ratio [18] | selectivity ratio [19] | selectivity ratio [20] | selectivity ratio [21] | selectivity ratio [22] | other results
1 | Nc1ccccc1NC(=O)c1cnccn1 | – | – | – | – | – | – | – | – | – | – | – | – | – | – | – | – | – | – | – | – | IC50 [1]: 28.5 µM; IC50 [2]: 34.2 µM
2 | CCCCNNC(=O)c1cnc(NCc2ccccc2)cn1 | > 70 | 2.16 | 1.6 | 132 | 3.33 | 113 | 133 | 129 | > 40 | > 40 | > 40 | > 40 | > 40 | > 40 | > 40 | > 40 | > 40 | > 40 | > 40 | > 40 | –
3 | CCCNNC(=O)c1cnc(NCc2ccccc2)cn1 | > 70 | 1.12 | 1.15 | 1.23 | 2.76 | 114 | 110 | 140 | > 40 | > 40 | > 40 | > 40 | > 40 | > 40 | > 40 | > 40 | > 40 | > 40 | > 40 | > 40 | inhibition [23]: < 17%; inhibition [24]: < 17%
4 | CCCNNC(=O)c1cnc(NC(=O)c2ccc3ncccc3c2)cn1 | > 70 | 1.01 | 0.59 | 0.87 | 1.82 | 140 | 126 | 131 | > 40 | > 40 | > 40 | > 40 | > 40 | > 40 | > 40 | > 40 | > 40 | > 40 | > 40 | > 40 | inhibition [23]: < 17%; inhibition [24]: < 17%
5 | CCCNNC(=O)c1cnc(Nc2ccccc2)cn1 | > 70 | 3.28 | 2.76 | 1.88 | 5.44 | 205 | 218 | 196 | > 40 | > 40 | > 40 | > 40 | > 40 | > 40 | > 40 | > 40 | > 40 | > 40 | > 40 | > 40 | –
6 | Nc1ccccc1NC(=O)c1cnc(NCc2ccccc2)cn1 | – | – | – | – | – | – | – | – | – | – | – | – | – | – | – | – | – | – | – | – | IC50 [25]: 15.6 µM; IC50 [26]: 37.2 µM
7 | CCCNNC(=O)c1cnc(NC(=O)c2ccc3[nH]ccc3c2)cn1 | > 70 | 2.03 | 0.71 | 0.92 | 2.19 | 125 | 138 | 180 | > 40 | > 40 | > 40 | > 40 | > 40 | > 40 | > 40 | > 40 | > 40 | > 40 | > 40 | > 40 | inhibition [23]: < 17%; inhibition [24]: < 17%
